Measured values reported in patent US7838554B2, “Dihydroxyl compounds and compositions for cholesterol management and related uses” (Esperion Therapeutics, Inc., priority 2003, dated 2010).

How the values were obtained:
obese female Zucker rats = assay: Oral daily treatment of chow fed obese female Zucker rats for fourteen days: serum lipids, glycemic indicators, body weight; type: in vivo, rat; settings: 14 days, n=4
Method: In a number of different experiments, illustrative compounds of the invention are administered daily at a dose of up to 100 mg/kg to chow fed obese female Zucker rats for fourteen days in the morning by oral gavage in 1.5% carboxymethylcellulose/0.2% Tween 20 or 20% ethanol/80% polyethylene glycol (dosing vehicles). Animals are weighed daily. Animals are allowed free access to rodent chow and water throughout the study except on days of blood sampling where food is restricted for six hours prior to blood sampling. Blood glucose is determined after the 6 hour fast in the afternoon without anesthesia from a tail vein. Serum is also prepared from pretreatment blood samples subsequently obtained from the orbital venous plexus (with O2/CO2 anesthesia) and following the fourteenth dose at sacrifice from the heart following O2/CO2 anesthesia. Serums are assayed for lipoprotein cholesterol profiles, triglycerides, total cholesterol, Non-HDL cholesterol, HDL cholesterol, the ratio of HDL cholesterol to that of Non-HDL cholesterol, insulin, non-esterified fatty acids, and beta-hydroxy butyric acid. The percent body weight gain and the ratio of liver to body weight is also determined. These are shown as absolute values or as a percent change of the pretreatment values in Table 1

primary rat hepatocytes = assay: Inhibition of lipid synthesis ([1-14C]-acetate incorporation) in primary cultures of rat hepatocytes; type: cell-based; settings: Hepatocyte, 4 hours, 0-300 μM
Method: Compounds were tested for inhibition of lipid synthesis in primary cultures of rat hepatocytes. Male Sprague-Dawley rats were anesthetized with intraperitoneal injection of sodium pentobarbital (80 mg/kg). Rat hepatocytes were isolated essentially as described by the method of Seglen (Seglen, P. O. Hepatocyte suspensions and cultures as tools in experimental carcinogenesis. J. Toxicol. Environ. Health 1979, 5, 551-560). Hepatocytes were suspended in Dulbecco's Modified Eagles Medium containing 25 mM D-glucose, 14 mM HEPES, 5 mM L-glutamine, 5 mM leucine, 5 mM alanine, 10 mM lactate, 1 mM pyruvate, 0.2% bovine serum albumin, 17.4 mM non-essential amino acids, 20% fetal bovine serum, 100 nM insulin and 20 μg/mL gentamycin) and plated at a density of 1.5×10^5 cells/cm^2 on collagen-coated 96-well plates. Four hours after plating, media was replaced with the same media without serum. […] Lipid synthesis incubation conditions were initially assessed to ensure the linearity of [1-^14C])-acetate incorporation into hepatocyte lipids for up to 4 hours. Hepatocyte lipid synthesis inhibitory activity was assessed during incubations in the presence of 0.25 μCi [1-^14C]-acetate/well (final radiospecific activity in assay is 1 Ci/mol) and 0, 1, 3, 10, 30, 100 or 300 μM of compounds for 4 hours. […] Lipid radioactivity was assessed by scintillation spectroscopy in a Packard TopCount NXT.

[1] = Solubility noted on work-up of the tetraol; type: physicochemical
Description: THP-protected bromo alcohol XA was converted into the corresponding Grignard reagent XB following the standard procedure (Vogel, A. I. “Vogel's Textbook of Practical Organic Chemistry”, 5th Edition, Longman, England, 1989, p. 535). Further coupling of this Grignard reagent in situ with succinic dialdehyde Z prepared by acid-catalyzed ring-opening of commercially available 2,5-dimethoxytetrahydrofuran Y (Fakstorp, J.; Raleigh, D.; Schniepp, L. E. J. Am. Chem. Soc., 1950, 72, 869, House, H. O.; Cronin, T. H. J. Org. Chem., 1965, 30, 1061) at 0 to 5° C. occurs smoothly to give the bis(THP-protected) tetraol XC in high yield (92% after flash column chromatography purification). Acidic hydrolysis of XC in methanol/aqueous H2SO4 was completed in two hours to afford tetraol XI). The product is insoluble in dichloromethane and diethyl ether and could be purified by washing with one of these solvents.

Compound | melting point | % wt. gain (obese female Zucker rats; 100 mg/kg/day oral gavage) | Glucose, Percent of Pre-treatment (obese female Zucker rats; blood glucose after 6 hour fast, 100 mg/kg/day oral) | BHA, Percent of Pre-treatment (obese female Zucker rats; serum beta-hydroxy butyric acid, 100 mg/kg/day oral) | NEFA, Percent of Pre-treatment (obese female Zucker rats; serum non-esterified fatty acids, 100 mg/kg/day oral) | HDL-C/non-HDL-C (obese female Zucker rats; serum ratio, 100 mg/kg/day oral) | TC, Percent of Pre-treatment (obese female Zucker rats; serum total cholesterol, 100 mg/kg/day oral) | TG, Percent of Pre-treatment (obese female Zucker rats; serum triglycerides, 100 mg/kg/day oral) | HDL-C, Percent of Pre-treatment (obese female Zucker rats; serum, 100 mg/kg/day oral) | Insulin, Percent of Pre-treatment (obese female Zucker rats; serum, 100 mg/kg/day oral) | Non-HDL-C, Percent of Pre-treatment (obese female Zucker rats; serum, 100 mg/kg/day oral) | IC50 (primary rat hepatocytes) | Solubility in water [1]
CC(C)(CO)CCCC(O)CCCC(O)CCCC(C)(C)CO (centres unmarked) [Compound 6.2.2, 2,2,14,14-Tetramethylpentadecane-1,6,10,15-tetraol] | 85 to 86 °C |  |  |  |  |  |  |  |  |  |  |  | 
CC(C)(CO)CCCC(O)CCC(O)CCCC(C)(C)CO (centres unmarked) [Compound A] |  | 13% | 11% | 73% | 143% | 1 | 4% | 43% | −19% | 70% | 30% | 1100 nM | 
CC(C)(CO)CCCC(O)CCC(O)CCCC(C)(C)CO (centres unmarked) [XI), 2,2,13,13-Tetramethyltetradecan-1,6,9,14-tetraol] | 96 to 97 °C |  |  |  |  |  |  |  |  |  |  |  | practically insoluble
